Patent US20250197407A1 (Jazz Pharmaceuticals Ireland Limited, priority 2022, published 2025)

Target: SOS1/KRAS WT (Homo sapiens (Human), UniProt Q07889)
Test: SOS1/KRAS WT HTRF binding assay (FRET-based protein-protein interaction)
Settings: inhibition of His6-SOS1 (aa564-1049, 40 nM) binding to GST-KRAS-WT (aa1-188, 40 nM); at least two independent replicates; read-out: SOS1/KRAS WT HTRF Binding assay pIC50 (converted)
Method in brief: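 Time-resolved FRET at 665 nm, read 4 hr after adding anti-GST-Eu(K) (4 nM) and anti-6His-XL665 (20 nM), tracked SOS1(aa564-1049)–KRAS WT(aa1-188) association. Both proteins were at 40 nM, pre-incubated 60 min at room temperature with compound. Max/min signals came from 0.05% DMSO and 10 μM reference, with four-parameter logistic IC50.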

SOS1/KRAS WT, sequence (Q07889 564-1049): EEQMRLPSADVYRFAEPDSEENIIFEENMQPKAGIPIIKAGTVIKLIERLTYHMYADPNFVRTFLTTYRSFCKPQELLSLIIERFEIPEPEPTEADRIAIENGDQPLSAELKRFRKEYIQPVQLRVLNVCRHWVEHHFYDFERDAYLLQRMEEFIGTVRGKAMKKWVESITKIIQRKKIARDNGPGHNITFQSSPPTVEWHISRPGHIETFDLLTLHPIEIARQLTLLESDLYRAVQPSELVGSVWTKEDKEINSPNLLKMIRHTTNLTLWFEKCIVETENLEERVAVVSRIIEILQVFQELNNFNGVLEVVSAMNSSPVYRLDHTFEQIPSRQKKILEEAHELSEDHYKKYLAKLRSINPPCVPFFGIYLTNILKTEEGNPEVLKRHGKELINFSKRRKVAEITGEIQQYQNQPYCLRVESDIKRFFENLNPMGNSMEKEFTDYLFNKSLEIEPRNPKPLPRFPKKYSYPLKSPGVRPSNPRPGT

Row | SMILES | IC50
1 | Cc1nnc(N[C@H](C)c2cccc(C(F)(F)C(C)(C)O)c2)c2cc3c(cc12)n(C)c(=O)n3C1(C)CC1 [Compound 83, 1,8-dimethyl-3-(1-methylcyclopropyl)-5-[[(1R)-1-[3-(1,1-difluoro-2-hydroxy-2-methyl-propyl)phenyl]ethyl]amino]imidazo [4,5-g]phthalazin-2-one] | 7.94 nM
2 | Cc1nnc(N[C@H](C)c2cccc(C(F)(F)F)c2)c2cc3c(cc12)n(C)c(=O)n3C [Compound 3, 1,3,8-trimethyl-5-[[(1R)-1-[3-(trifluoromethyl)phenyl]ethyl]amino] imidazo[4,5-g]phthalazin-2-one] | 20.9 nM
3 | Cc1nnc(N[C@H](C)c2cccc(C(F)(F)C(C)(C)O)c2)c2cc3c(cc12)C1(CCOCC1)C(=O)N3C1CC1 [Compound 120, 1-cyclopropyl-5-methyl-8-[[(1R)-1-[3-(1,1-difluoro-2-hydroxy-2-methyl-propyl)phenyl]ethyl]amino]spiro [pyrrolo[2,3-g]phthalazine-3,4′-tetrahydropyran]-2-one] | 10.5 nM
4 | CCn1c(=O)n(C)c2cc3c(C)nnc(N[C@H](C)c4cccc(C(F)F)c4F)c3cc21 [Compound 20, 3-ethyl-1,8-dimethyl-5-[[(1R)-1-[3-(difluoromethyl)-2-fluoro-phenyl]ethyl]amino]imidazo[4,5-g]phthalazin-2-one] | 10 nM
5 | Cc1nnc(N[C@H](C)c2cccc(C(F)(F)CO)c2)c2cc3c(cc12)n(C)c(=O)n3C1CC1 [Compound 70, 3-cyclopropyl-1,8-dimethyl-5-[[(1R)-1-[3-(1,1-difluoro-2-hydroxy-ethyl)phenyl]ethyl]amino]imidazo [4,5-g]phthalazin-2-one] | 11.5 nM
6 | Cc1nnc(N[C@H](C)c2cccc(C(F)F)c2)c2cc3c(cc12)n(C)c(=O)n3C [Compound 5, 5-[[(1R)-1-[3-(difluoromethyl)phenyl]ethyl]amino]-1,3,8-trimethyl-imidazo[4,5-g]phthalazin-2-one] | 39.8 nM
7 | Cc1nnc(N[C@H](C)c2cccc(C(F)(F)CO)c2)c2cc3c(cc12)C(C)(C)C(=O)N3C [Compound 78, 1,3,3,5-tetramethyl-8-[[(1R)-1-[3-(1,1-difluoro-2-hydroxy-ethyl)phenyl]ethyl]amino]pyrrolo [2,3-g]phthalazin-2-one] | 9.55 nM
8 | Cc1nnc(N[C@H](C)c2cccc(C(F)F)c2F)c2cc3c(cc12)C(C)(C)C(=O)N3C [Compound 44, 1,3,3,5-tetramethyl-8-[[(1R)-1-[3-(difluoromethyl)-2-fluoro-phenyl]ethyl]amino]pyrrolo[2,3-g]phthalazin-2-one] | 8.71 nM
9 | Cc1nnc(N[C@H](C)c2cccc(C(F)F)c2F)c2cc3c(cc12)n(C)c(=O)n3C1CC1 [Compound 34, 3-cyclopropyl-1,8-dimethyl-5-[[(1R)-1-[3-(difluoromethyl)-2-fluoro-phenyl]ethyl]amino]imidazo[4,5-g]phthalazin-2-one] | 9.77 nM
10 | Cc1nnc(N[C@H](C)c2cccc(C(F)(F)C(C)(C)O)c2F)c2cc3c(cc12)C(C)(C)C(=O)N3C(C)C [Compound 111, 1-isopropyl-3,3,5-trimethyl-8-[[(1R)-1-[3-(1,1-difluoro-2-hydroxy-2-methyl-propyl)-2-fluoro-phenyl]ethyl]amino]pyrrolo[2,3-g]phthalazin-2-one] | 7.41 nM
11 | Cc1nnc(N[C@H](C)c2cccc(C(F)(F)CO)c2F)c2cc3c(cc12)n(C)c(=O)n3C(C)(C)C [Compound 26, 3-tert-butyl-1,8-dimethyl-5-[[(1R)-1-[3-(1,1-difluoro-2-hydroxy-ethyl)-2-fluoro-phenyl]ethyl]amino]imidazo[4,5-g]phthalazin-2-one] | 14.5 nM
12 | Cc1nnc(N[C@H](C)c2cccc(C(F)(F)C(C)(C)O)c2)c2cc3c(cc12)C(C)(C)C(=O)N3C1CC1 [Compound 65, 1-cyclopropyl-3,3,5-trimethyl-8-[[(1R)-1-[3-(1,1-difluoro-2-hydroxy-2-methyl-propyl)phenyl]ethyl]amino]pyrrolo [2,3-g]phthalazin-2-one] | 9.77 nM
13 | Cc1c([C@@H](C)Nc2nnc(C)c3cc4c(cc23)n(C2CC2)c(=O)n4C)cccc1C(F)(F)F [Compound 58] | 6.61 nM
14 | Cc1nnc(N[C@H](C)c2cccc(C(F)(F)C(C)(C)O)c2F)c2cc3c(cc12)N(C)C(=O)C31CCOCC1 [Compound 115, 1,8-dimethyl-5-[[(1R)-1-[3-(1,1-difluoro-2-hydroxy-2-methyl-propyl)-2-fluoro-phenyl]ethyl]amino]spiro[pyrrolo[3,2-g]phthalazine-3,4′-tetrahydropyran]-2-one] | 6.61 nM

Further lines, results first:

Row | IC50 | SMILES
15 | 14.5 nM | CCC1(OC)C(=O)N(C)c2cc3c(C)nnc(N[C@H](C)c4cccc(C(F)(F)CO)c4F)c3cc21 (stereo partly drawn) [Compound 197, 5-[[(1R)-1-[3-(1,1-difluoro-2-hydroxy-ethyl)-2-fluoro-phenyl]ethyl]amino]-3-ethyl-3-methoxy-1,8-dimethyl-pyrrolo[2,3-g]phthalazin-2-one]
16 | 16.6 nM | CCOC1(C)C(=O)N(C)c2cc3c(C)nnc(N[C@H](C)c4cccc(C(F)(F)C(C)(C)O)c4F)c3cc21 (stereo partly drawn) [Compound 190, 3-ethoxy-1,3,8-trimethyl-5-[[(1R)-1-[3-(1,1-difluoro-2-hydroxy-2-methyl-propyl)-2-fluoro-phenyl]ethyl]amino]pyrrolo[3,2-g]phthalazin-2-one]
17 | 15.8 nM | COC1(C)C(=O)N(C)c2cc3c(C)nnc(N[C@H](C)c4cccc(C(F)(F)C(C)(C)O)c4C)c3cc21 (stereo partly drawn) [Compound 174, 3-methoxy-1,3,8-trimethyl-5-[[(1R)-1-[3-(1,1-difluoro-2-hydroxy-2-methyl-propyl)-2-methyl-phenyl]ethyl]amino]pyrrolo[3,2-g]phthalazin-2-one]
18 | 6.31 nM | Cc1nnc(N[C@H](C)c2cccc(C(F)(F)CO)c2)c2cc3c(cc12)N(C)C(=O)C31CCOCC1 [Compound 128, 1,8-dimethyl-5-[[(1R)-1-[3-(1,1-difluoro-2-hydroxy-ethyl)phenyl]ethyl]amino]spiro [pyrrolo[3,2-g]phthalazine-3,4′-tetrahydropyran]-2-one]
19 | 11.7 nM | Cc1nnc(N[C@H](C)c2cccc(C(F)(F)F)c2)c2cc3c(cc12)n(C)c(=O)n3C1CCOC1 (stereo partly drawn) [Compound 144, 1,8-dimethyl-3-tetrahydrofuran-3-yl-5-[[(1R)-1-[3-(trifluoromethyl)phenyl]ethyl]amino]imidazo[4,5-g]phthalazin-2-one]
20 | 15.5 nM | COC1(C)C(=O)N(C2CC2)c2cc3c(N[C@H](C)c4cccc(C(F)(F)C(C)(C)O)c4C)nnc(C)c3cc21 (stereo partly drawn) [Compound 140, 1-cyclopropyl-3-methoxy-3,5-dimethyl-8-[[(1R)-1-[3-(1,1-difluoro-2-hydroxy-2-methyl-propyl)-2-methyl-phenyl]ethyl]amino]pyrrolo[2,3-g]phthalazin-2-one]
21 | 12 nM | COC1(C)C(=O)N(C)c2cc3c(C)nnc(N[C@H](C)c4cccc(C(F)(F)C(C)(C)O)c4)c3cc21 (stereo partly drawn) [Compound 180, 3-methoxy-1,3,8-trimethyl-5-[[(1R)-1-[3-(1,1-difluoro-2-hydroxy-2-methyl-propyl)phenyl]ethyl]amino]pyrrolo [3,2-g]phthalazin-2-one]
22 | 7.94 nM | Cc1c([C@@H](C)Nc2nnc(C)c3cc4c(cc23)C2(CCOCC2)C(=O)N4C)cccc1C(F)(F)C(C)(C)O [Compound 131, 1,8-dimethyl-5-[[(1R)-1-[3-(1,1-difluoro-2-hydroxy-2-methyl-propyl)-2-methyl-phenyl]ethyl]amino]spiro[pyrrolo [3,2-g]phthalazine-3,4′-tetrahydropyran]-2-one]
23 | 10 nM | CCOC1(C)C(=O)N(C)c2cc3c(N[C@H](C)c4cccc(C(F)(F)CO)c4F)nnc(C)c3cc21 (stereo partly drawn) [Compound 135, 3-ethoxy-1,3,5-trimethyl-8-[[(1R)-1-[3-(1,1-difluoro-2-hydroxy-ethyl)-2-fluoro-phenyl]ethyl]amino]pyrrolo[2,3-g]phthalazin-2-one]
24 | 11.7 nM | Cc1nnc(N[C@H](C)c2cccc(C(F)F)c2)c2cc3c(cc12)n(C)c(=O)n3C(C)(C)C [Compound 205, 3-tert-butyl-5-[[(1R)-1-[3-(difluoromethyl)phenyl]ethyl]amino]-1,8-dimethyl-imidazo[4,5-g]phthalazin-2-one]
25 | 589 nM | Cc1c(C2CCNC2)cccc1[C@@H](C)Nc1nnc(C)c2cc3c(cc12)n(C)c(=O)n3C (stereo partly drawn) [Compound 161, 1,3,8-trimethyl-5-[[(1R)-1-(2-methyl-3-pyrrolidin-3-yl-phenyl)ethyl]amino]imidazo[4,5-g]phthalazin-2-one]
26 | 6.61 nM | Cc1c([C@@H](C)Nc2nnc(C)c3cc4c(cc23)C2(CCOCC2)C(=O)N4C)cccc1C(F)(F)CO [Compound 129, 1,8-dimethyl-5-[[(1R)-1-[3-(1,1-difluoro-2-hydroxy-ethyl)-2-methyl-phenyl]ethyl]amino]spiro[pyrrolo [3,2-g]phthalazine-3,4′-tetrahydropyran]-2-one]
27 | 9.77 nM | CCN1C(=O)C(C)(OC)c2cc3c(C)nnc(N[C@H](C)c4cccc(C(F)(F)CO)c4F)c3cc21 (stereo partly drawn) [Compound 172, 1-ethyl-3-methoxy-3,5-dimethyl-8-[[(1R)-1-[3-(1,1-difluoro-2-hydroxy-ethyl)-2-fluoro-phenyl]ethyl]amino]pyrrolo[2,3-g]phthalazin-2-one]
28 | 13.2 nM | CCc1nnc(N[C@H](C)c2cccc(C(F)(F)C(C)(C)O)c2F)c2cc3c(cc12)C(C)(OC)C(=O)N3C (stereo partly drawn) [Compound 200, 5-ethyl-3-methoxy-1,3-dimethyl-8-[[(1R)-1-[3-(1,1-difluoro-2-hydroxy-2-methyl-propyl)-2-fluoro-phenyl]ethyl]amino]pyrrolo[2,3-g]phthalazin-2-one]
